Key:
Assay type in all cases: cell-based
CDK4 [1] = molecular target: T1, CDK4 (Homo sapiens, UniProt P11802+Q16531); assay: CDK4 percentage degradation in Calu-1 cells (Table 6); parameters: Cells that express cyclin D1-3 and CDK4/6 proteins were treated with heterobifunctional compounds; endogenous in cells; host or cells: Calu-1; conditions: 16 hours; for inhibition at 0.04 µM: 40 nM; for inhibition at 0.2 µM: 200 nM
In short: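 Percentage degradation of Cyclin D1 and CDK4 derived from densitometry of ECL Western blots on lysates of Calu-1 cells. Treatment was 16 h with compound at either 40 nM or 200 nM.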
Target sequence in this assay (P11802 2-303 limits assumed): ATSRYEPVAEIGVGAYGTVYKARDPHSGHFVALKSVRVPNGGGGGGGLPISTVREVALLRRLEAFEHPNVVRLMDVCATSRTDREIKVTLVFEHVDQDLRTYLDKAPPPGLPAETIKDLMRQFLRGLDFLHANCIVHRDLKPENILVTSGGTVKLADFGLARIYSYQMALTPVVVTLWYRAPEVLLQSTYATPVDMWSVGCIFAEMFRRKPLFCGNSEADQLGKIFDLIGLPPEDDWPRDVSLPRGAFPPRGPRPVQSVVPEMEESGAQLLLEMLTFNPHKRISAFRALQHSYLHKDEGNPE
Target sequence in this assay (P24385 whole entry partner): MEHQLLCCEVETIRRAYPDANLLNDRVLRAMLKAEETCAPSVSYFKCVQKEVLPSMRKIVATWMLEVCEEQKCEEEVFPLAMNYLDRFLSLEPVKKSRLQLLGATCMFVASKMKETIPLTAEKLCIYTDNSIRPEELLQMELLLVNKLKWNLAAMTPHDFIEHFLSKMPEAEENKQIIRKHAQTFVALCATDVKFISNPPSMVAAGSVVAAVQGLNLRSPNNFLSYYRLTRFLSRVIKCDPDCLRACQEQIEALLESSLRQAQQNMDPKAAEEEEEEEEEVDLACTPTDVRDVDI
Target sequence in this assay (Q16531 2-1140 limits assumed): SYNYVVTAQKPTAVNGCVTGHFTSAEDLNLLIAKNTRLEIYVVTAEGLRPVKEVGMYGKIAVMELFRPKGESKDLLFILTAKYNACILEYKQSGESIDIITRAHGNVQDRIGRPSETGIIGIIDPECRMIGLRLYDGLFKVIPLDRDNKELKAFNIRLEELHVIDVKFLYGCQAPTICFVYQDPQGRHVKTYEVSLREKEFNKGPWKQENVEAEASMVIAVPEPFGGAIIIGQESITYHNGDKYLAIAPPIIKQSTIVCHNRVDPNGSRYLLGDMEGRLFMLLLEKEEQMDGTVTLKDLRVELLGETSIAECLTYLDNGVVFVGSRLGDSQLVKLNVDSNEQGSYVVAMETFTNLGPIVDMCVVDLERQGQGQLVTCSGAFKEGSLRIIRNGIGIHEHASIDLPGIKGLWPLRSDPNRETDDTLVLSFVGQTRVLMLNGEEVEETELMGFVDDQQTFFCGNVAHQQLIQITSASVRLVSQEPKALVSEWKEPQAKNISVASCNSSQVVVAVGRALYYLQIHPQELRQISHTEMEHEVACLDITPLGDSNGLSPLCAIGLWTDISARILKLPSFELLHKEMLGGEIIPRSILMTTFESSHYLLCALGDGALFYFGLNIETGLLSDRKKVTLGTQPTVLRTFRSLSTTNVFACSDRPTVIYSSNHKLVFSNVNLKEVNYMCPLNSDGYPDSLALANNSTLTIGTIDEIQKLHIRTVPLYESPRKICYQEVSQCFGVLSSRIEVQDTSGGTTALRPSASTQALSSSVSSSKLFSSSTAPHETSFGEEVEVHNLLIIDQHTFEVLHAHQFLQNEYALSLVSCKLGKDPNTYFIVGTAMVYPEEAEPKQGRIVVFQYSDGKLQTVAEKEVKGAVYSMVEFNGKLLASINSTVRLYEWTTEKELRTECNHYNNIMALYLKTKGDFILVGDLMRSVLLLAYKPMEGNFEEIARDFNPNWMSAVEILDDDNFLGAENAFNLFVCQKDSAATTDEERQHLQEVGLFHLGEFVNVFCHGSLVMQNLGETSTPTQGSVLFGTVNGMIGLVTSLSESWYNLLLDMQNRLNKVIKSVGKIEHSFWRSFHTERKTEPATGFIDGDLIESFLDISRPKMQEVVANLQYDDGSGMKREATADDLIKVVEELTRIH

CDK4 [2] = molecular target: T1, CDK4; assay: HiBiT detection of HiBiT-tagged CDK4 protein level in MCF7 cells, 16 hours (Table 8); parameters: expressed in transfected cells; host or cells: MCF7; conditions: MCF7 cells stably expressing HiBiT tagged target proteins; for activity at 0.01 µM: 10 nM, read-out: % CDK4 Relative Level (10 nM); for activity at 0.1 µM: 100 nM, read-out: % CDK4 Relative Level (100 nM)
Method: HiBiT detection system quantitatively measures total amounts of HiBiT-tagged proteins using a luminescent based method. MCF7 cells stably expressing HiBiT tagged target proteins were treated with heterobifunctional compounds at indicated concentrations for 16 hours, then lysed with Nano-Glo HiBiT Lytic detection reagents.
Target sequence in this assay (P11802 whole entry): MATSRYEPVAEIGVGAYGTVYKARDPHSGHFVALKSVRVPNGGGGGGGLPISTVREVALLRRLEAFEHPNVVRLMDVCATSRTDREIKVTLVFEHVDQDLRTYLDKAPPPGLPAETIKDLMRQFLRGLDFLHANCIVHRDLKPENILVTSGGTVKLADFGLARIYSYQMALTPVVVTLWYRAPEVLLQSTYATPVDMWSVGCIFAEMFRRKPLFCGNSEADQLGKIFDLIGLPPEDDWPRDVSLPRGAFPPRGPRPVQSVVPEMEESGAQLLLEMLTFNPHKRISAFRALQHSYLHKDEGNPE
Target sequence in this assay (P24385 whole entry partner): as the sequence (P24385 whole entry partner) above
Target sequence in this assay (Q16531 2-1140 limits assumed): as the sequence (Q16531 2-1140 limits assumed) above

MCF7 cells = assay: Anti-proliferation (viability) of MCF7 cells (Table 7, FIG. 2B); conditions: Homo sapiens, MCF7, MCF7 cells, 3-6 days, 10-point serial dilution; read-out: GI IC50 in MCF-7

Row | inhibition at 0.04 µM (CDK4 [1]) | inhibition at 0.2 µM (CDK4 [1]) | activity at 0.01 µM (CDK4 [2]) | activity at 0.1 µM (CDK4 [2]) | IC50 (MCF7 cells) | Compound
1 | < 30% | < 30% | 55 to 85% | 55 to 85% | < 50 nM | CC(=O)c1c(C)c2cnc(Nc3ccc(N4CCC(N(C)CC(=O)N5CCC(Nc6nc(NC(C)C)ccc6C(=O)Nc6ccc(N(C)C)nn6)CC5)CC4)cn3)nc2n(C2CCCC2)c1=O [CPD-360, 2-((1-(N-(1-(6-((6-acetyl-8-cyclopentyl-5-methyl-7-oxo-7,8-dihydropyrido[2,3-d]pyrimidin-2-yl)amino)pyridin-3-yl)piperidin-4-yl)-N-methylglycyl)piperidin-4-yl)amino)-N-(6-(dimethylamino)pyridazin-3-yl)-6-(isopropylamino)nicotinamide]
2 | < 30% | < 30% | 55 to 85% | 55 to 85% | < 50 nM | [2H]C([2H])([2H])Nc1ccc(C(=O)Nc2ccc(N(C)C)nn2)c(NC2CC3(C2)CN(C(=O)CN2CCC4(CCN(c5ccc(Nc6ncc7c(C)c(C(C)=O)c(=O)n(C8CCCC8)c7n6)nc5)C4)C2)C3)n1 (stereo not shown) [CPD-384, 2-((2-(2-(7-(6-((6-acetyl-8-cyclopentyl-5-methyl-7-oxo-7,8-dihydropyrido[2,3-d]pyrimidin-2-yl)amino)pyridin-3-yl)-2,7-diazaspiro[4.4]nonan-2-yl)acetyl)-2-azaspiro[3.3]heptan-6-yl)amino)-N-(6-(dimethylamino)pyridazin-3-yl)-6-((methyl-d3)amino)nicotinamide]
3 | 30 to 50% | 30 to 50% | 55 to 85% | 55 to 85% | < 50 nM | CC(=O)c1c(C)c2cnc(Nc3ccc(N4CCN(CCC(=O)N5CC6(CC(Nc7nc(NC(C)C)ccc7C(=O)Nc7ccc(N(C)C)nn7)C6)C5)CC4)cn3)nc2n(C2CCCC2)c1=O [CPD-305, 2-((2-(3-(4-(6-((6-acetyl-8-cyclopentyl-5-methyl-7-oxo-7,8-dihydropyrido[2,3-d]pyrimidin-2-yl)amino)pyridin-3-yl)piperazin-1-yl)propanoyl)-2-azaspiro[3.3]heptan-6-yl)amino)-N-(6-(dimethylamino)pyridazin-3-yl)-6-(isopropylamino)nicotinamide]
4 | 30 to 50% | 30 to 50% | 55 to 85% | 55 to 85% | < 50 nM | CC(=O)c1c(C)c2cnc(Nc3ccc(N4CCN(CC5(C(=O)N6CC7(CC(Nc8nc(NC(C)C)ccc8C(=O)Nc8ccc(N(C)C)nn8)C7)C6)CC5)CC4)cn3)nc2n(C2CCCC2)c1=O [CPD-306, 2-((2-(1-((4-(6-((6-acetyl-8-cyclopentyl-5-methyl-7-oxo-7,8-dihydropyrido[2,3-d]pyrimidin-2-yl)amino)pyridin-3-yl)piperazin-1-yl)methyl)cyclopropane-1-carbonyl)-2-azaspiro[3.3]heptan-6-yl)amino)-N-(6-(dimethylamino)pyridazin-3-yl)-6-(isopropylamino)nicotinamide]
5 | < 30% | < 30% | 55 to 85% | 55 to 85% | < 50 nM | CC(=O)c1c(C)c2cnc(Nc3ccc(N4CCN(CCC(=O)N5CCC(Nc6nc(NC(C)C)ccc6C(=O)Nc6ccc(N(C)C)nn6)CC5)CC4)cn3)nc2n(C2CCCC2)c1=O [CPD-301, 2-((1-(3-(4-(6-((6-acetyl-8-cyclopentyl-5-methyl-7-oxo-7,8-dihydropyrido[2,3-d]pyrimidin-2-yl)amino)pyridin-3-yl)piperazin-1-yl)propanoyl)piperidin-4-yl)amino)-N-(6-(dimethylamino)pyridazin-3-yl)-6-(isopropylamino)nicotinamide]
6 | – | – | 55 to 85% | 55 to 85% | > 100 nM | CC(=O)c1c(C)c2cnc(Nc3ccc(N4CCN(C5CCN(C(=O)[C@H]6CC[C@H](Nc7nc(C)ccc7C(=O)Nc7ccc(N(C)C)nn7)CC6)C5)CC4)cn3)nc2n(C2CCCC2)c1=O (stereo partly drawn) [CPD-576, 2-((trans-4-(3-(4-(6-((6-acetyl-8-cyclopentyl-5-methyl-7-oxo-7,8-dihydropyrido[2,3-d]pyrimidin-2-yl)amino)pyridin-3-yl)piperazin-1-yl)pyrrolidine-1-carbonyl)cyclohexyl)amino)-N-(6-(dimethylamino)pyridazin-3-yl)-6-methylnicotinamide]
7 | – | – | > 85% | > 85% | > 100 nM | CNc1ccc(C(=O)Nc2ccc(N(C)C)nn2)c(NCCCCCCCCNC(=O)CN2CCN(c3ccc(Nc4ncc5cc6n(c5n4)C4(CCCCC4)CNC6=O)nc3)CC2)n1 [CPD-646, N-(6-(dimethylamino)pyridazin-3-yl)-6-(methylamino)-2-((8-(2-(4-(6-((6′-oxo-7′,8′-dihydro-6′H-spiro[cyclohexane-1,9′-pyrazino[1′,2′:1,5]pyrrolo[2,3-d]pyrimidin]-2′-yl)amino)pyridin-3-yl)piperazin-1-yl)acetamido)octyl)amino)nicotinamide]
8 | – | – | 55 to 85% | 55 to 85% | > 100 nM | CNc1ccc(C(=O)Nc2ccc(N(C)C)nn2)c(NCCCCNC(=O)CN2CCN(c3ccc(Nc4ncc5cc(C(=O)N(C)C)n(C6CCCC6)c5n4)nc3)CC2)n1 [CPD-626, 7-cyclopentyl-2-((5-(4-(2-((4-((3-((6-(dimethylamino)pyridazin-3-yl)carbamoyl)-6-(methylamino)pyridin-2-yl)amino)butyl)amino)-2-oxoethyl)piperazin-1-yl)pyridin-2-yl)amino)-N,N-dimethyl-7H-pyrrolo[2,3-d]pyrimidine-6-carboxamide]
9 | – | – | > 85% | 55 to 85% | > 100 nM | CNc1ccc(C(=O)Nc2ccc(N(C)C)nn2)c(NCCNC(=O)CN2CCN(Cc3ccc(Nc4ncc(F)c(-c5cc(F)c6nc(C)n(C(C)C)c6c5)n4)nc3)CC2)n1 [CPD-608, N-(6-(dimethylamino)pyridazin-3-yl)-2-((2-(2-(4-((6-((5-fluoro-4-(4-fluoro-1-isopropyl-2-methyl-1H-benzo[d]imidazol-6-yl)pyrimidin-2-yl)amino)pyridin-3-yl)methyl)piperazin-1-yl)acetamido)ethyl)amino)-6-(methylamino)nicotinamide]
10 | – | – | 55 to 85% | 55 to 85% | < 50 nM | CC(=O)c1c(C)c2cnc(Nc3ccc(CN4CCN(CC(=O)N5CCC6(CCC(Nc7nc(C(C)C)ccc7C(=O)Nc7ccc(N(C)C)nn7)C6)C5)CC4)cn3)nc2n(C2CCCC2)c1=O (stereo not shown) [CPD-583, 2-((2-(2-(4-((6-((6-acetyl-8-cyclopentyl-5-methyl-7-oxo-7,8-dihydropyrido[2,3-d]pyrimidin-2-yl)amino)pyridin-3-yl)methyl)piperazin-1-yl)acetyl)-2-azaspiro[4.4]nonan-7-yl)amino)-N-(6-(dimethylamino)pyridazin-3-yl)-6-isopropylnicotinamide]
11 | – | – | 55 to 85% | 55 to 85% | > 100 nM | CNc1ccc(C(=O)Nc2ccc(N(C)C)nn2)c(NCCCCCCC(=O)N2CCN(c3ccc(Nc4ncc5cc(C(=O)N(C)C)n(C6CCCC6)c5n4)nc3)CC2)n1 [CPD-620, 7-cyclopentyl-2-((5-(4-(7-((3-((6-(dimethylamino)pyridazin-3-yl)carbamoyl)-6-(methylamino)pyridin-2-yl)amino)heptanoyl)piperazin-1-yl)pyridin-2-yl)amino)-N,N-dimethyl-7H-pyrrolo[2,3-d]pyrimidine-6-carboxamide]
12 | – | – | > 85% | > 85% | > 100 nM | CNc1ccc(C(=O)Nc2ccc(N(C)C)nn2)c(NCCCC(=O)N2CCN(c3ccc(Nc4ncc5cc(C(=O)N(C)C)n(C6CCCC6)c5n4)nc3)CC2)n1 [CPD-617, 7-cyclopentyl-2-((5-(4-(4-((3-((6-(dimethylamino)pyridazin-3-yl)carbamoyl)-6-(methylamino)pyridin-2-yl)amino)butanoyl)piperazin-1-yl)pyridin-2-yl)amino)-N,N-dimethyl-7H-pyrrolo[2,3-d]pyrimidine-6-carboxamide]
13 | – | – | 55 to 85% | 55 to 85% | > 100 nM | CNc1ccc(C(=O)Nc2ccc(N(C)C)nn2)c(NCCCCCCC(=O)N2CCN(c3ccc(Nc4ncc5cc6n(c5n4)C4(CCCCC4)CNC6=O)nc3)CC2)n1 [CPD-636, N-(6-(dimethylamino)pyridazin-3-yl)-6-(methylamino)-2-((7-oxo-7-(4-(6-((6′-oxo-7′,8′-dihydro-6′H-spiro[cyclohexane-1,9′-pyrazino[1′,2′:1,5]pyrrolo[2,3-d]pyrimidin]-2′-yl)amino)pyridin-3-yl)piperazin-1-yl)heptyl)amino)nicotinamide]
14 | – | – | 55 to 85% | > 85% | > 100 nM | CNc1ccc(C(=O)Nc2ccc(N(C)C)nn2)c(NCCCC(=O)N2CCN(c3ccc(Nc4ncc5cc6n(c5n4)C4(CCCCC4)CNC6=O)nc3)CC2)n1 [CPD-633, N-(6-(dimethylamino)pyridazin-3-yl)-6-(methylamino)-2-((4-oxo-4-(4-(6-((6′-oxo-7′,8′-dihydro-6′H-spiro[cyclohexane-1,9′-pyrazino[1′,2′:1,5]pyrrolo[2,3-d]pyrimidin]-2′-yl)amnion)pyridin-3-yl)piperazin-1-yl)butyl)amino)nicotinamide]

Reference: US20260297081A1, “COMPOUNDS AND METHODS OF TREATING CANCERS” (Cullgen Inc., priority 2023, published 2026)
